The structures appear in SMILES notation.

The nature of experiment [1]: In vitro solubility assay (turbidity assay) with 7KC. It counts as physicochemical. The following applies: 300 μM sterol, 3% ethanol in PBS, 30 mins at 37C, absorbance at 350 nm. As to the method: (§1) Greater affinity for one compound than another, e.g., greater affinity for 7KC than cholesterol, may be determined using a “turbidity test” performed on an aqueous suspension containing 3% ethanol, 300 uM sterol, in PBS and 1 mM of the CD to be tested. This single concentration of CD is used in order to standardize the test results. To perform the test, the samples are incubated for 30 mins at 37C, and then absorbance at 350 nm is measured, e.g., using a spectrophotometer plate reader. Relative turbidity is determined by dividing the measured turbidity in the presence of the CD to the baseline turbidity without the CD. A given CD has greater affinity for 7KC than cholesterol if the relative turbidity of the 7KC suspension is lower than the relative turbidity of the cholesterol solution.
(§2) Sterol stock solutions (including cholesterol and 7KC) were suspended in 100% ethanol. Final concentration of suspensions: 3% ethanol, 300 μM sterol, in PBS with various concentrations of CDs.

A short description of experiment [2]: In vitro solubility assay (turbidity assay) with cholesterol. Particulars: 300 μM sterol, 3% ethanol in PBS, 30 mins at 37C, absorbance at 350 nm. The experiment is classed as physicochemical. As to the method:
as §1, §2

For the molecule `OC[C@H]1O[C@@H]2O[C@H]3[C@H](O)[C@@H](O)[C@@H](O[C@H]4[C@H](O)[C@@H](O)[C@@H](O[C@H]5[C@H](O)[C@@H](O)[C@@H](O[C@H]6[C@H](O)[C@@H](O)[C@@H](O[C@H]7[C@H](O)[C@@H](O)[C@@H](O[C@H]1[C@H](O)[C@H]2O)O[C@@H]7CO)O[C@@H]6CO)O[C@@H]5CO)O[C@@H]4CO)O[C@@H]3CO` [native αCD], in experiment [1], the “solubilization / binding of 7KC (turbidity)” value is “low affinity for 7KC and cholesterol”; the “specificity for 7KC over cholesterol (turbidity)” value is reported as “no specificity”. In addition, in experiment [2], the “solubilization / binding of cholesterol (turbidity)” value is “low affinity for 7KC and cholesterol”.
